According to publication PMC7613515, “Reading and erasing of the phosphonium analogue of trimethyllysine by epigenetic proteins” (Communications Chemistry, 2022):

Molecular target: T1, TAF3PHD (R857–K924) (Mus musculus, UniProt Q5HZG4)
T1 construct: TAF3PHD (R857–K924); made in house; host or cells: E. coli
T1 sequence (Q5HZG4 857-924 limits assumed): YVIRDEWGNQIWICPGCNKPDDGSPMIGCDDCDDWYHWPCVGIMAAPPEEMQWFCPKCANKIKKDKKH
Test: ITC, association of histone H3 peptides with TAF3PHD
Type: binding, human
Conditions: 25 °C, H3 1-10 peptide, Tris (50 mM), pH 7.5, from 3 to 5 experiments, ± SD
Source text: We investigated the thermodynamics of association of the H3KP4me3 peptide with five representative human reader domains containing either a PHD zinc finger or TTD, i.e. KDM5APHD3 (JARID1A-PHD3, residues M1489–V1641)[10], TAF3PHD (R857–K924)[22], BPTFPHD (L2583–N2751)[23], SGF29TTD (R115–K293)[24] and KDM4ATTD (JMJD2A, Q897-P1011)[25], selected on the basis of their preference for binding Ν^ε-trimethyllysine over other (non)methylation marks (Kme0 < Kme1 < Kme2 < Kme3), and their domain and aromatic cage diversity. The recombinant readers were produced in E. coli following reported procedures. Isothermal titration calorimetric (ITC) analyses were used to determine the dissociation constant (Kd), the Gibbs free energy of binding (ΔG°), the enthalpy of binding (ΔH°), and the entropy of binding (ΔS°). […] (Table 1, Fig. 2, Supplementary Fig. 1).
The following purified reader domains: TAF3PHD (R857-K924), KDM5APHD3 (JARID1A, M1489-V1641), BPTFPHD (L2583-N2751), KDM4ATTD (JMJD2A, Q897-P1011) and SGF29TTD (R115-K293) were prepared as reported[10],[22]–[26]. The histone lysine demethylase were produced and purified to high purity via reported procedures KDM3A (JMJD1A, T515-S1317)[41], KDM4AJmjC[39] (JMJD2A, M1-L359), KDM4EJmjC (JMJD2E, M1–Q337)[34] and KDM7B[40] (PHF8, M37-N483 [NP_001171]). KDM5DJmjC was produced using an N-terminal hexa-His tagged KDM4D (KDM4DM1-L358) DNA construct, transformed into BL21(DE3) competent cells for recombinant protein production. Colonies were used to inoculate of LB media (50 mL) containing kanamycin (50 µg·mL^−1) and chloramphenicol (34 µg·mL^−1), which was placed in a 37 °C shaker overnight. The starter culture (10 mL) was used to inoculate TB media (6 × 1 L) containing kanamycin (50 µg·mL^−1) in 2 L baffled shaker flasks. After reaching an of OD600 of ~0.8, the temperature was reduced to 18 °C; at OD600 ~0.9 the cells were induced by the IPTG (0.5 mM) addition. After shaking overnight, the culture was centrifuged (5000 rpm, 10 mins), the media was decanted, and the cell pellet was suspended in Lysis Buffer [HEPES (50 mM), NaCl (500 mM), imidazole (20 mM), glycerol (5%) and TCEP (0.5 mM) in water (pH 7.4)]. The suspension was lysed by passaging through a high-pressure cell breaker (Avestin – EmulsiFlex-C5) for three rounds. The lysate was cleared by centrifugation (60 minutes, 36,000 × g, 4 °C), then loaded onto a Ni NTA gravity column. […]
ITC studies followed a reported procedure. […] Histone peptide titrations were performed with the same reader batches. Solutions of the reader in buffer (25–40 µM) and of the histone H3 peptide (350–600 µM) in buffer were prepared. […] Heats of dilution for histone peptides determined in control experiments were subtracted from the titration binding data. […]

SMILES: C[C@H](N)C(=O)N[C@@H](CCCNC(=N)N)C(=O)N[C@H](C(=O)N[C@@H](CCCC[P+](C)(C)C)C(=O)N[C@@H](CCC(N)=O)C(=O)N[C@H](C(=O)N[C@@H](C)C(=O)N[C@@H](CCCNC(=N)N)C(=O)N[C@@H](CCCCN)C(=O)N[C@@H](CO)C(N)=O)[C@@H](C)O)[C@@H](C)O [H3KP4me3]
- -TΔS°: 1.1 ± 0.1 kcal/mol
- ΔG°: -10.0 ± 0.1 kcal/mol
- ΔH°: -11.1 ± 0.1 kcal/mol
